In paper PMC7698860, “Discovery and Design of Novel Small Molecule GSK-3 Inhibitors Targeting the Substrate Binding Site” (International Journal of Molecular Sciences, 2020):

Experiments:
GSK-3β [1] = biological target: T1, GSK-3β (Oryctolagus cuniculus, UniProt A0A5F9DUX8); assay: In vitro GSK-3β kinase assay (ELISA-based, IRS-1 peptide substrate); format: biochemical, rabbit; settings: for IC50: GSK-3β inhibition, 10 μM ATP; for IC50 / GSK-3β inhibition (in words): in vitro kinase assay; for Effect of Triton ×100 on inhibition of GSK-3β: 20 μM, 0.05% Triton ×100 (colloidal aggregation control); for GSK-3β inhibition (in words): screening hits
T1 sequence (A0A5F9DUX8 entry or part of it): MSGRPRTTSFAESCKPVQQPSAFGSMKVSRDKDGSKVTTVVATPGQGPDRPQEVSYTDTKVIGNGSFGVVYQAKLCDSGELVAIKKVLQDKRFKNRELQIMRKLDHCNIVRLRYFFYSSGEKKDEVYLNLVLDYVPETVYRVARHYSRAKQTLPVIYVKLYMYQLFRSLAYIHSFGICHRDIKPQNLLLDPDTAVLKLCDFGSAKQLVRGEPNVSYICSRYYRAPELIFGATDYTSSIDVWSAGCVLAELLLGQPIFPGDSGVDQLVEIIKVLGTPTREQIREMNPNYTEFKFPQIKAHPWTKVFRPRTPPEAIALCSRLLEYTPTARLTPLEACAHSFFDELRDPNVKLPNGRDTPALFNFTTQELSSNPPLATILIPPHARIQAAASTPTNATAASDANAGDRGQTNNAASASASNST
Protocol: (§1) An ELISA-based assay was developed in our laboratory to measure GSK-3 activity. In brief, biotin-labelled IRS-1 peptide substrate was bound to streptavidin-coated 96-well microplates. A GSK-3 assay solution (0.1 μg GSK-3β, 20 mM Tris (pH 7.3), 10 mM MgCl2, and 10 μM ATP) was added to each well, together with the candidate compound at indicated concentrations, and the plates were incubated for 15 min at 30 °C. After having been washed (PBS 0.05% tween), the plates were incubated with a specific anti-phospho IRS-1 antibody (Ser^332) (1:2000), followed by HRP-secondary antibody (1:8000). The signal was developed with TMB solution (abcam, Cambridge UK, Cat# ab210902), stopped with H2SO4, and monitored in a plate reader ([…]). Assays were conducted in duplicates in three independent experiments. In the ATP competitive, or, substrate competitive assays, the assays (60 μL) were performed in Eppendorf tubes (to use “unbound” substrate), and 10–20 μL were spotted on the streptavidin-coated plates. Km values were calculated from the non-linear curve fit, and Ki values were calculated by Kapp = Km (1 + [I]/Ki). Bacterially expressed His-tagged rabbit GSK-3β was purified as described, and purified human GSK-3α was purchased from abcam (Cat# ab42597). The selectivity of compound 4-4 against a collection of protein kinases was assayed at the International Center for Kinase Profiling at the MRC unit, University of Dundee, UK.

GSK-3β-F93A mutant = assay: In vitro kinase assay with GSK-3β-F93A mutant; format: biochemical
From the text: To further confirm that compounds interact with the GSK-3β substrate binding site, we performed in vitro kinase assays with the GSK-3β-F93A mutant in which Phe 93 was replaced by alanine. […] This, in contrast, to SB216763, an established GSK-3 ATP competitive inhibitor [46] that inhibited both wild-type (WT) and the F93A mutant (Figure 3B).
as §1

GSK-3β [2] = biological target: T1, GSK-3β; assay: Michaelis Menten ATP competitive and substrate competitive assays; format: biochemical, rabbit; settings: Lineweaver-Burk plots; for Mode of inhibition versus substrate: lines intersect at the Y-axis
Protocol: We next performed Michaelis Menten competitive assays to examine the ability of 4-3 or 4-4 to compete with ATP or with substrates. […] Subsequently, Michaelis Menten substrate competitive assays were performed and data were analyzed by Lineweaver–Burk plots (Figure 6B). […] The calculated ki values were 7.7 ± 3 and 7.0 ± 0.2 for 4-3 and 4-4 respectively. […] While most of our experiments concentrated on GSK-3β, we also tested the inhibition of GSK-3α by compounds 4-1 through 4-5. […] Inhibition of GSK-3β by 4-3 or 4-4 was not affected by the detergent (Figure 6E). As a final caveat, we evaluated the selectivity of our leading compound 4-4.
as §1

[3] = tested on: Mouse hippocampal primary neurons; assay: β-catenin immunostaining in hippocampal primary neurons; format: cell-based; settings: 4-4 5 μM, CHIR99021 10 μM, 4 h
Protocol: Hippocampi were isolated from C57BL6/J mice (0–1 day old), and tissues were digested with trypsin type XI (Sigma, Rehovot, Israel, Cat # T1005), and DNase type IV (Sigma, cat #D5025). Cells were suspended in a plating medium including MEM supplemented with 10% FBS, transferrin (0.089 mg/m), GlutaMAX (0.75 U/mL) (Sigma, Cat # 35050-038), insulin (16 μM) (Roche, Basel, Switzerland, Cat # 45865100), and SM1 neuronal supplement (STEMCELL, Seattle, WA, USA, Cat # 05711), and plated on glass coverslips coated with Matrigel (Corning, NY, USA, Cat# 356234) in a 24-well plate. […]
Primary neuron cells were treated with 4-4 (5 μM), CHIR99021 (10 μM) (Merck, MA, USA), or, vehicle (DMSO/1%Tween 80) for 4 hr. Cells were fixed with 4% PFA and immunostained with anti-βcatenin and anti-MAP2 (Sypnactic System, Goettingen, Germany, A neuronal marker) antibodies. βcatenin signal was evaluated by Image J software using co-localization finder plugin (https://imagej.nih.gov/ij/plugins/colocalization-finder.html) that calculated the ratio of βcatenin over MAP2 and DAPI in each cell. The average ratio that was determined for control vehicle-treated cells was set to 1 and respective folds of treated cells were calculated accordingly.

[4] = tested on: Mouse hippocampal primary neurons; assay: Tau (Ser 396) phosphorylation in hippocampal primary neurons (immunoblot); format: cell-based; settings: 20 μM, 4 h
Protocol: Hippocampi were isolated from C57BL6/J mice (0–1 day old), and tissues were digested with trypsin type XI (Sigma, Rehovot, Israel, Cat # T1005), and DNase type IV (Sigma, cat #D5025). Cells were suspended in a plating medium including MEM supplemented with 10% FBS, transferrin (0.089 mg/m), GlutaMAX (0.75 U/mL) (Sigma, Cat # 35050-038), insulin (16 μM) (Roche, Basel, Switzerland, Cat # 45865100), and SM1 neuronal supplement (STEMCELL, Seattle, WA, USA, Cat # 05711), and plated on glass coverslips coated with Matrigel (Corning, NY, USA, Cat# 356234) in a 24-well plate. The day after plating and twice a week thereafter half of the medium was removed and was replaced with by fresh feeding medium (plating medium lacking insulin and containing Ara-C (3 μM)) (Sigma, Cat# C6645).
(§2) Equal amounts of proteins (30–50 μg) were subjected to SDS PHAGE gel electrophoresis, transferred to nitrocellulose membranes, and immunoblotted with selected antibodies followed by incubation with HRP-linked anti-rabbit, or, anti-mouse IgG (Cell signaling, MA, USA, and Jackson Immune Research, PA, USA, respectively). ECL developed membranes were imaged in UVITEC Alliance biomolecular imaging, and densitometry analysis of respected bands was analyzed with software provided by the vendor. Representative protein bands were taken from the same gel, and each gel represents three independent experiments. […]

SH-SY5Y cells = assay: Cytoplasmic β-catenin levels in SH-SY5Y cells (immunoblot); format: cell-based, human; settings: 4 h
Protocol: To verify the potential biological activity of our SCI compounds, we tested their ability to inhibit cellular GSK-3. We focused on the SCI compound 4-4 that was the best inhibitor of the five molecules that were tested (4-1–4-5) β-catenin, which is a central Wnt signaling component, and a well-established GSK-3 target. β-catenin phosphorylation by GSK-3 triggers its rapid proteasomal degradation. We, therefore, studied potential alterations in β-catenin levels following treatment with 4-4. Human neuroblastoma SH-SY5Y cells were treated with increasing concentrations of 4-4, and the levels of β-catenin were determined in the cytoplasmic fraction (prepared after cell permeabilization and sup collection), this to avoid possible “masking” of membrane-associated β-catenin. […]
as §2, with “vendor.” for “vendor. Representative protein bands were taken from the same gel, and each gel represents three independent experiments.”

30 protein kinases = assay: Selectivity against a collection of protein kinases (International Center for Kinase Profiling, Dundee); format: biochemical; settings: 10 μM
Protocol: An ELISA-based assay was developed in our laboratory to measure GSK-3 activity. In brief, biotin-labelled IRS-1 peptide substrate was bound to streptavidin-coated 96-well microplates. A GSK-3 assay solution (0.1 μg GSK-3β, 20 mM Tris (pH 7.3), 10 mM MgCl2, and 10 μM ATP) was added to each well, together with the candidate compound at indicated concentrations, and the plates were incubated for 15 min at 30 °C. After having been washed (PBS 0.05% tween), the plates were incubated with a specific anti-phospho IRS-1 antibody (Ser^332) (1:2000), followed by HRP-secondary antibody (1:8000). The signal was developed with TMB solution (abcam, Cambridge UK, Cat# ab210902), stopped with H2SO4, and monitored in a plate reader ([…]). Assays were conducted in duplicates in three independent experiments. In the ATP competitive, or, substrate competitive assays, the assays (60 μL) were performed in Eppendorf tubes (to use “unbound” substrate), and 10–20 μL were spotted on the streptavidin-coated plates. Km values were calculated from the non-linear curve fit, and Ki values were calculated by Kapp = Km (1 + [I]/Ki). Bacterially expressed His-tagged rabbit GSK-3β was purified as described, and purified human GSK-3α was purchased from abcam (Cat# ab42597). […]

## Cc1sc2nc3c(SC(C)C(=O)O)cc(C(=O)c4ccccc4O)cn3c(=O)c2c1C (stereo not shown) [Compound 1-6]
GSK-3β [1]
  IC50: 200 ± 30 µM

## O=C(O)CCNc1cc(N2CCN(C(=O)c3ccco3)CC2)c2noc3c2c1C(=O)c1ccccc1-3 [Compound 3-5]
GSK-3β [1]
  IC50: > 21 µM

## Cn1cc(C2=C(c3ccc(Cl)cc3Cl)C(=O)NC2=O)c2ccccc21 [SB216763, reference compound]
GSK-3β-F93A mutant; 1 μM
  Inhibition of F93A mutant: inhibited
GSK-3β [1]; 1 μM
  Inhibition of wild-type (WT) GSK-3β: inhibited

## O=C(O)CNc1cc(N2CCC(c3ccccc3)CC2)c2noc3c2c1C(=O)c1ccccc1-3 [Compound 3-9]
GSK-3β [1]
  IC50: > 21 µM

## O=C(O)c1ccc(N2CCN(c3cc(NCCP(=O)(O)O)c4c5c(onc35)-c3ccccc3C4=O)CC2)cc1 [Compound 4-3]
GSK-3β [2]
  Mode of inhibition versus ATP: non-competitive inhibitors for ATP
  Mode of inhibition versus substrate: substrate competitive inhibitors
GSK-3β-F93A mutant; 20 μM each
  Inhibition of F93A mutant: did not inhibit
GSK-3β [1]
  Effect of Triton ×100 on inhibition of GSK-3β: not affected
  IC50: 1 to 4 µM

## O=C(O)CC1S/C(=N/N=C/c2cc(Br)ccc2OCc2ccc(Cl)cc2)NC1=O (stereo not shown) [Compound 1-7]
GSK-3β [1]
  IC50: 180 ± 20 µM

## O=C(O)CCNc1cc(N2CCN(c3ccc(F)cc3)CC2)c2noc3c2c1C(=O)c1ccccc1-3 [Compound 3-8]
GSK-3β [1]
  IC50: 8 ± 3 µM

## O=C1c2ccccc2-c2onc3c(N4CCN(c5ccc(O)cc5)CC4)cc(NCCP(=O)(O)O)c1c23 [Compound 4-4]
[3]
  β-catenin levels in soma and dendrites of neurons: significant increase
[4]
  Phosphorylation of tau (Ser 396): reduced
GSK-3β [2]
  Mode of inhibition versus ATP: non-competitive inhibitors for ATP
  Mode of inhibition versus substrate: substrate competitive inhibitors
SH-SY5Y cells; 10 μM
  Cytoplasmic β-catenin at higher doses: reduction
SH-SY5Y cells
  Concentration sufficient to activate β-catenin in the cytoplasm: 1 to 5 µM
30 protein kinases
  Selectivity over 30 protein kinases: showed specificity toward GSK-3α and GSK-3β
GSK-3β-F93A mutant; 20 μM each
  Inhibition of F93A mutant: did not inhibit
GSK-3β [1]
  Effect of Triton ×100 on inhibition of GSK-3β: not affected
  IC50: 1 to 4 µM

## O=C(O)CCCNc1cc(N2CCN(C(=O)c3ccco3)CC2)c2noc3c2c1C(=O)c1ccccc1-3 [Compound 2-2]
GSK-3β [1]
  IC50: 21 ± 4 µM
  GSK-3β inhibition (in words): best GSK-3β inhibitors

## Cc1c[nH]c(-c2cnc(NCCNc3ccc(C#N)cn3)nc2-c2ccc(Cl)cc2Cl)n1 [CHIR9920, reference compound]
[3]
  β-catenin levels in soma and dendrites of neurons: significant increase

## O=C(O)CCCNc1cc(N2CCN(c3ccc(F)cc3)CC2)c2noc3c2c1C(=O)c1ccccc1-3 [Compound 2-1]
GSK-3β [1]
  GSK-3β inhibition (in words): best GSK-3β inhibitors

## KEAPPSPPQS(p)PF [Compound L803F, reference compound]
GSK-3β-F93A mutant; 20 μM each
  Inhibition of F93A mutant: barely inhibited

## CCOC(=O)C1CCCN(c2cc(Nc3ccc(C(=O)O)cc3)c3c4c(onc24)-c2ccccc2C3=O)C1 (stereo not shown) [Compound 3-13]
GSK-3β [1]
  IC50: > 21 µM
